Source: US20050261290A1, “Novel compounds of proline and morpholine derivatives” (priority 2004, published 2005)

Target: human 11b-hsd-1 (Homo sapiens, UniProt P28845)
Assay: Inhibition constant Ki of human 11b-hsd-1 (3H-cortisone to 3H-cortisol conversion, HPLC)
Assay type: biochemical
Conditions: for Ki: apparent Ki, human 11b-hsd-1, read-out: Ki app; for inhibition at 0.1 µM / % inh @ 0.1 μM: compound at 0.1 μM
Procedure: In each well, varying amounts of compounds are incubated with a fixed amount of 11b-hsd-1 (4 nM) and NADPH (500 μM) for 30 to 40 min at room temperature in the assay buffer. The enzyme concentration was determined by titration using reversible tight-binding inhibitors. […] The area of 3H-cortisol is calculated and plotted versus time to determine a linear velocity. […] Where vi, and vo are the rates of cortisol formation in the presence and in the absence of inhibitor, respectively, I is the inhibitor concentration and E is the 11 b-hsd-1 concentration in the assay buffer. […] NADPH, Glucose-6-Phosphate (G6P), and Glucose-6-Phosphate dehydrogenase was purchased from Sigma.

Chain of human 11b-hsd-1 (P28845 whole entry): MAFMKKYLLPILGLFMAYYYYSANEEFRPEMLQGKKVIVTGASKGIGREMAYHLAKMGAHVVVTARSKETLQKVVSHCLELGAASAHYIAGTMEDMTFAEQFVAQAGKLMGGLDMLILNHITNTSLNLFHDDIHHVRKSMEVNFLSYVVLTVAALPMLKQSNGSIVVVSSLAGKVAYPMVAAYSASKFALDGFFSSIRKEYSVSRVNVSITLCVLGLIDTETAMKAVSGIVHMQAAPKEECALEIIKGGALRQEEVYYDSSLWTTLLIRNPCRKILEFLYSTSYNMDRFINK

Row | SMILES | Ki [nM] | inhibition at 0.1 µM [%] | % inh @ 0.1 μM [%] | % inh @ 0.1 μM (0.1 µM) [%]
1 | COC(C)(C)CN1CCC[C@@H]1C(=O)NC1CCCCC1 [Example 88, 1-(2-Methoxy-2-methyl-propyl)-pyrrolidine-2-carboxylic acid cyclohexylamide] | 7 | 94 | – | –
2 | CCCN1CCC[C@@H]1C(=O)N[C@@H]1C[C@H]2CC[C@@H]1C2 [Example 89] | – | 92 | – | –
3 | CCCN1CCC[C@@H]1C(=O)N[C@H]1C[C@@H]2CC[C@H]1C2 [Example 90] | – | 100 | – | –
4 | CCCN1CCC[C@@H]1C(=O)NC1CC2CCC1C2 (stereo partly shown) [Example 91] | – | 100 | – | –
5 | CCCN1CCC[C@@H]1C(=O)NC1CC2CCC1C2 (stereo partly shown) [Example 92] | – | – | 100 | –
6 | CCCN1CCC[C@@H]1C(=O)NC1CCCCCC1 [Example 93] | 2 | 100 | – | –
7 | CCCN1CCC[C@@H]1C(=O)NCC1CCCC1 [Example 94] | 11 | 86 | – | –
8 | CCOCCN1CCC[C@@H]1C(=O)NC1CCCCC1 [Example 95] | 39 | 78 | – | –
9 | CC(C)OCCN1CCC[C@@H]1C(=O)NC1CCCCC1 [Example 96] | 39 | 84 | – | –
10 | O=C(NC1CCCCC1)[C@H]1CCCN1CC1CCCO1 (stereo partly shown) [Example 97] | 7 | – | – | 100
11 | O=C(NC1CCCCC1)[C@H]1CCCN1CC1CCCO1 (stereo partly shown) [Example 98] | – | – | – | 41
12 | O=C(NC1CCCCC1)[C@H]1CCCN1CC1CCOCC1 [Example 99] | 8 | 91 | – | –
13 | CCCCN1CCC[C@@H]1C(=O)NC1CCCCC1 [Example 100] | 4 | 100 | – | –
14 | O=C(NC1CCCCC1)[C@H]1CCCN1CC(F)(F)F [Example 101] | 5 | 100 | – | –
15 | O=C(NC1CCCCC1)[C@H]1CCCN1CC1CC1 [Example 102] | 7 | 91 | – | –
16 | O=C(NC1CCCCC1)[C@H]1CCCN1C1CCC1 [Example 103] | 14 | 83 | – | –
17 | CCCN1CCC[C@@H]1C(=O)NC1(C)CCCCC1 [Example 104] | 6 | 100 | – | –
18 | CCC(C)N1CCC[C@@H]1C(=O)NC1CCCCC1 (stereo partly shown) [Example 105] | 15 | 82 | – | –
19 | CCCN1CCC[C@@H]1C(=O)NC1CCC(C)CC1 (stereo partly shown) [Example 106] | 2 | 100 | – | –
20 | CN(C)CCN1CCC[C@@H]1C(=O)NC1C2CC3CC(C2)CC1C3 (stereo partly shown) [Example 107] | 2 | 100 | – | –
21 | CN(C)CCCN1CCC[C@@H]1C(=O)NC1C2CC3CC(C2)CC1C3 (stereo partly shown) [Example 108] | 9 | 100 | – | –
22 | CCN(CC)CCN1CCC[C@@H]1C(=O)NC1C2CC3CC(C2)CC1C3 (stereo partly shown) [Example 109] | – | 77 | – | –
23 | CN(CCN1CCC[C@@H]1C(=O)NC1C2CC3CC(C2)CC1C3)Cc1ccccc1 (stereo partly shown) [Example 110, 1-[2-(Benzyl-methyl-amino)ethyl]-pyrrolidine-2-carboxylic acid adamantan-2-ylamide] | – | 100 | – | –
24 | CNCCN1CCC[C@@H]1C(=O)NC1C2CC3CC(C2)CC1C3 (stereo partly shown) [Example 111] | – | 96 | – | –
25 | CC(C)(C)OC(=O)N1CCC[C@H]1CN1CCC[C@@H]1C(=O)NC1C2CC3CC(C2)CC1C3 (stereo partly shown) [Example 112] | – | 81 | – | –

Row | SMILES | Ki [nM] | inhibition at 0.1 µM [%] | % inh @ 0.1 μM [%] | % inh @ 0.1 μM (0.1 µM) [%]
26 | CC(C)(C)OC(=O)N1CCC[C@@H]1CN1CCC[C@@H]1C(=O)NC1C2CC3CC(C2)CC1C3 (stereo partly shown) [Example 113] | – | 100 | – | –
27 | CC(C)(C)OC(=O)N1CCC(CN2CCC[C@@H]2C(=O)NC2C3CC4CC(C3)CC2C4)C1 (stereo partly shown) [Example 114] | – | 100 | – | –
28 | O=C(NC1C2CC3CC(C2)CC1C3)[C@H]1CCCN1CC1CCOC1 (stereo partly shown) [Example 115] | – | 100 | – | –
29 | C[C@H](O)CN1CCC[C@@H]1C(=O)NC1C2CC3CC(C2)CC1C3 (stereo partly shown) [Example 117] | – | 100 | – | –
30 | C[C@@H](O)CN1CCC[C@@H]1C(=O)NC1C2CC3CC(C2)CC1C3 (stereo partly shown) [Example 118] | – | 100 | – | –
31 | COC(C)(C)CN1CCC[C@@H]1C(=O)NC1C2CC3CC(C2)CC1C3 (stereo partly shown) [Example 120] | – | 100 | – | –
32 | O=C(NC1C2CC3CC(C2)CC1C3)[C@H]1CCCNC1 (stereo partly shown) [Example 121, Piperidine-3-carboxylic acid adamantan-2-ylamide] | – | 17 | – | –
33 | CC(C)CN1CCC[C@@H]1C(=O)NC12C3C4C1C1C2C3C41C (stereo partly shown) [Example 122] | – | 100 | – | –
34 | CCCN1CCC[C@@H]1C(=O)NC12C3C4C1C1C2C3C41C (stereo partly shown) [Example 123] | – | 100 | – | –
35 | CCN1CCC[C@H](C(=O)NC2C3CC4CC(C3)CC2C4)C1 (stereo partly shown) [Example 124] | – | 100 | – | –
36 | CCCN1CCC[C@H](C(=O)NC2C3CC4CC(C3)CC2C4)C1 (stereo partly shown) [Example 125] | – | 81 | – | –
37 | O=C(NC1C2CC3CC(C2)CC1C3)[C@H]1CCCN1Cc1ccn[nH]1 (stereo partly shown) [Example 126] | – | 71 | – | –
38 | O=C(NC1CCCCC1)[C@H]1CCCN1CCC(F)(F)F [Example 127] | – | 100 | – | –
39 | O=C(NC1C2CC3CC(C2)CC1C3)[C@H]1CCCN1CCN1CCOCC1 (stereo partly shown) [Example 128] | – | 100 | – | –
40 | CC(=O)NCCN1CCC[C@@H]1C(=O)NC1C2CC3CC(C2)CC1C3 (stereo partly shown) [Example 129, 1-(2-Acetylamino-ethyl)pyrrolidine-2-carboxylic acid adamantan-2-ylamide] | – | 72 | – | –
41 | CS(=O)(=O)NCCN1CCC[C@@H]1C(=O)NC1C2CC3CC(C2)CC1C3 (stereo partly shown) [Example 130, 1-(2-Methanesulfonylamino-ethyl)pyrrolidine-2-carboxylic acid adamantan-2-ylamide] | – | 56 | – | –
42 | CCN1[C@@H](C(=O)NC2CCCCC2)CCC1(C)C [Example 131] | – | 88 | – | –
43 | O=C(NC1C2CC3CC(C2)CC1C3)[C@H]1CCCN1CCN1CCCC1 (stereo partly shown) [Example 132] | – | 92 | – | –
44 | CS(=O)(=O)N1CCC[C@@H]1CN1CCC[C@@H]1C(=O)NC1C2CC3CC(C2)CC1C3 (stereo partly shown) [Example 134] | – | 96 | – | –
45 | CS(=O)(=O)N1CCC[C@H]1CN1CCC[C@@H]1C(=O)NC1C2CC3CC(C2)CC1C3 (stereo partly shown) [Example 135] | – | 100 | – | –
46 | CC(C)CN1CCC[C@@H]1C(=O)NC1CCC(F)(F)CC1 [Example 136] | – | 100 | – | –
47 | CCCN1CCC[C@@H]1C(=O)NC1CCC(F)(F)CC1 [Example 137] | – | 87 | – | –
48 | O=C(NC1C2CC3CC(C2)CC1C3)[C@H]1CCCN1C[C@H]1CCCN1 (stereo partly shown) [Example 138] | – | 100 | – | –
49 | CC(=O)N1CCC(CN2CCC[C@@H]2C(=O)NC2C3CC4CC(C3)CC2C4)CC1 (stereo partly shown) [Example 139] | – | 100 | – | –
50 | CS(=O)(=O)N1CCC(CN2CCC[C@@H]2C(=O)NC2C3CC4CC(C3)CC2C4)CC1 (stereo partly shown) [Example 140] | – | 100 | – | –

Row | SMILES | Ki [nM] | inhibition at 0.1 µM [%] | % inh @ 0.1 μM [%] | % inh @ 0.1 μM (0.1 µM) [%]
51 | O=C(NC1C2CC3CC(C2)CC1C3)[C@H]1CCCN1C[C@@H]1CCCN1 (stereo partly shown) [Example 141] | – | 76 | – | –
52 | O=C(NC1C2CC3CC(C2)CC1C3)[C@H]1CCCN1CC1CCNC1 (stereo partly shown) [Example 142] | – | 100 | – | –
53 | CC12C3C4C1C1C2C3C41NC(=O)[C@H]1CCCN1 (stereo partly shown) [Example 143] | – | 10 | – | –
54 | O=C(NC1C2CC3CC(C2)CC1C3)[C@H]1CCCN1CC1CCNCC1 (stereo partly shown) [Example 144] | – | 87 | – | –
55 | C[C@@H](CN1CCC[C@@H]1C(=O)NC1C2CC3CC(C2)CC1C3)NC(=O)OC(C)(C)C (stereo partly shown) [Example 154] | – | 96 | – | –
56 | CC(C)(C)OC(=O)N1CCN(CC2CCCC2)[C@@H](C(=O)NC23CC4CC(CC(C4)C2)C3)C1 [Example 161] | – | 8.7 | – | –
57 | N#Cc1ccc(CN2CCCC(C(=O)NC3C4CC5CC(C4)CC3C5)C2)cc1 (stereo not shown) [Example 163] | – | 100 | – | –
58 | CC(C)(C)OC(=O)N1CCCC(C(=O)Nc2ccc3ncccc3n2)C1 (stereo not shown) [Example 164] | – | 11 | – | –
59 | C[C@H](N)CN1CCC[C@@H]1C(=O)NC1C2CC3CC(C2)CC1C3 (stereo partly shown) [Example 176] | – | 100 | – | –
60 | CN(C(=O)C1COCCN1Cc1ccccc1)C1CCCCC1 (stereo not shown) [Example 177] | 18 | 92.2 | – | –
61 | O=C(NC12CC3CC(CC(C3)C1)C2)C1COCCN1Cc1ccccc1 (stereo not shown) [Example 178] | 1 | 100 | – | –
62 | N#Cc1cccc(CN2CCOCC2C(=O)NC23CC4CC(CC(C4)C2)C3)c1 (stereo not shown) [Example 179] | 2 | 100 | – | –
63 | CN(C(=O)C1COCCN1CC1CCCCC1)C1CCCCC1 (stereo not shown) [Example 180] | 32 | 72.1 | – | –
64 | O=C(NC12CC3CC(CC(C3)C1)C2)C1COCCN1CC1CCCCC1 (stereo not shown) [Example 181] | 1.8 | 100 | – | –
65 | O=C(NC12CC3CC(CC(C3)C1)C2)C1COCCN1CC1CCCC1 (stereo not shown) [Example 183] | 2.1 | 100 | – | –
66 | O=C(NC12CC3CC(CC(C3)C1)C2)C1COCCN1CC1CCOCC1 (stereo not shown) [Example 184] | 3.2 | 100 | – | –
67 | O=C(NC12CC3CC(CC(C3)C1)C2)C1COCCN1CCC1CCOCC1 (stereo not shown) [Example 185] | 14 | 91.3 | – | –
68 | CC1(C)CC(NC(=O)C2COCCN2Cc2ccccc2)CC(C)(C)C1 (stereo not shown) [Example 186] | 1 | 100 | – | –
69 | CC1(C)CC(NC(=O)C2COCCN2Cc2cccc(C#N)c2)CC(C)(C)C1 (stereo not shown) [Example 187] | 3 | 100 | – | –
70 | CC1(C)CC(NC(=O)C2COCCN2CC2CCCCC2)CC(C)(C)C1 (stereo not shown) [Example 188] | 1.7 | 100 | – | –
71 | CC1(C)CC(NC(=O)C2COCCN2Cc2cccc(OC(F)F)c2)CC(C)(C)C1 (stereo not shown) [Example 189] | 1.1 | 100 | – | –
72 | CC1(C)CC(NC(=O)C2COCCN2CC2CCCC2)CC(C)(C)C1 (stereo not shown) [Example 190] | 1.1 | 100 | – | –
73 | CN(C(=O)[C@H]1CCCN1Cc1ccc(Cl)cc1)C1CCCCC1 [Example 191] | 28 | 83.7 | – | –
